Calls of active or inactive are those of the source. For most assays here, no stated cut-off is given here; in the data, actives have a measured EC50 and inactives only a lower limit.

Experiment [1] deals with Luciferin 4-monooxygenase (Photinus pyralis, UniProt P08659). Put plainly: inhibition of purified Photinus pyralis luciferase – biochemical, luminescence, dose response (AID 1891).
A short description of experiment [2]: Luminescence Cell-Based Dose Confirmation HTS to Identify Inhibitors of Platelet Dense Granule Release. [Related pubchem assays: 1663 (Primary HTS), 1678 (Summary of Project)]. In kind it is functional.
Experiment [3] addresses T1, Replicative DNA helicase DnaB (Mycobacterium tuberculosis, UniProt P9WMR3).
T1 sequence (P9WMR3 whole entry): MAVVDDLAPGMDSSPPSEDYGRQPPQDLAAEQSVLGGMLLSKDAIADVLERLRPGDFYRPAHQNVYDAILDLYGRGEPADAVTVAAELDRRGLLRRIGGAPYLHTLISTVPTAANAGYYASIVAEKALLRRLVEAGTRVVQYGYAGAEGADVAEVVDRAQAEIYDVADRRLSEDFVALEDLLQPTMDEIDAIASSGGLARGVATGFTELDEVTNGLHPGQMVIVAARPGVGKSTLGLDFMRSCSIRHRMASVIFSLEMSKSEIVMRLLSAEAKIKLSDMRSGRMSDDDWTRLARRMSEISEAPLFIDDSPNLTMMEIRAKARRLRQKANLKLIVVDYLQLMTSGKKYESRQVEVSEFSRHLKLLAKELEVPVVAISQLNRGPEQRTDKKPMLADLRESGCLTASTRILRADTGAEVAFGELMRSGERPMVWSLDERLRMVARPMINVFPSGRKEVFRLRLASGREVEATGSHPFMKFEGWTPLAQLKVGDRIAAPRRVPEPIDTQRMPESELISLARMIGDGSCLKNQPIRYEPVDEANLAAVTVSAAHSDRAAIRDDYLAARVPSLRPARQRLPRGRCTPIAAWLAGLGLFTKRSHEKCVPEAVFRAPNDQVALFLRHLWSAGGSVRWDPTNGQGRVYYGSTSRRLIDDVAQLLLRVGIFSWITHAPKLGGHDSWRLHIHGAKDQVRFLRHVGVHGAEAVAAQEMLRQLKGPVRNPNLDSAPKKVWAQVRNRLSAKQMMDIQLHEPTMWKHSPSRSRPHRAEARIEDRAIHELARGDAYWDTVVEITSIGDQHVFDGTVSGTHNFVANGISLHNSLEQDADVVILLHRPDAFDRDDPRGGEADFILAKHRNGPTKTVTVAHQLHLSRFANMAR
The experiment is described as follows: DnaB intein splicing inhibitors, dose response, biochemical, cell-free fluorescence (AID 449749). It counts as functional.

Experiment [4] concerns the target T2, Protein RecA (Mycobacterium tuberculosis, UniProt P9WHJ3).
T2 sequence (P9WHJ3 whole entry): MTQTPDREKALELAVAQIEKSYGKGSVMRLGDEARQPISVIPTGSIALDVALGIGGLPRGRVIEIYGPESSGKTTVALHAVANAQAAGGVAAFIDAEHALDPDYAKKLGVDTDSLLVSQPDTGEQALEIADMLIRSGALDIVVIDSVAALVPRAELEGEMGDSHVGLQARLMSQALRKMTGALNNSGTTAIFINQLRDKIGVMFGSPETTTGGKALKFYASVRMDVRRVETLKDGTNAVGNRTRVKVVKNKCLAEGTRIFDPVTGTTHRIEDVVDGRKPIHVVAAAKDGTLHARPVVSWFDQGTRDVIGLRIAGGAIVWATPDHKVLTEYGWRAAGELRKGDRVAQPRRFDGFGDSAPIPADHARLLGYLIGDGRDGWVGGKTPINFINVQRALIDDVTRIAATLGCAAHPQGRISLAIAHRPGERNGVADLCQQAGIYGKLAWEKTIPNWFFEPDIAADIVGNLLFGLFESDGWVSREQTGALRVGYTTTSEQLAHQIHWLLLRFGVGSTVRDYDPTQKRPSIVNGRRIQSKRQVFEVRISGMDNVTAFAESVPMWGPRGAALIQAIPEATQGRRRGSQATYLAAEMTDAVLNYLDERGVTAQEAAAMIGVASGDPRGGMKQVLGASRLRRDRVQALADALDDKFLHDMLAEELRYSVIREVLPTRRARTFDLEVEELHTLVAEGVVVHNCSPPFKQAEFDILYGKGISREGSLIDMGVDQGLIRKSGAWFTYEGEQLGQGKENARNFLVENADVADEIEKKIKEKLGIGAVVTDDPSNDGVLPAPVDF
The experiment is described as follows: Fluorescence Cell-Free Homogeneous Dose Retest to Identify Inhibitors of RecA-Intein Splicing Activity. [Related pubchem assays (depositor defined):AID2097, AID2223, AID489010, AID492950]. It counts as functional.

Experiment [5] addresses T3, Heat shock factor protein 1 (Mus musculus, UniProt P38532).
T3 sequence (P38532 whole entry): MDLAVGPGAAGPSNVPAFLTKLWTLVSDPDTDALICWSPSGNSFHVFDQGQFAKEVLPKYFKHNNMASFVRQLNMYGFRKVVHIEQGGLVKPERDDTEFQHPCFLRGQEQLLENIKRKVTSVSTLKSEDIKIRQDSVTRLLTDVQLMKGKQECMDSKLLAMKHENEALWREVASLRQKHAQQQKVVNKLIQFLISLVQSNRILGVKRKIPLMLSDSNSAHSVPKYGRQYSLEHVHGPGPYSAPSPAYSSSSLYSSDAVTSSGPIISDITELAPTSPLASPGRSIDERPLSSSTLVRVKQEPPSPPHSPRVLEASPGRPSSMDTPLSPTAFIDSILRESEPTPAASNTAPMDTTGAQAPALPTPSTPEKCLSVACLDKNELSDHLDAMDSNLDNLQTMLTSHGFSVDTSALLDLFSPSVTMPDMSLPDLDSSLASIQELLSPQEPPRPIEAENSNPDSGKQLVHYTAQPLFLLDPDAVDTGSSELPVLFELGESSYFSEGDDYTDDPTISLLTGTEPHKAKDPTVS
The experiment is described as follows: decrease of HSF1-responsive luciferase luminescence – cell-based, NIH3T3, dose retest, confirmation (AID 2382).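 Further: NIH3T3 fibroblasts with HSF1-driven luciferase reporter stressed by proteasome inhibitor MG132; luminescence from HSF1-driven luciferase expression after 8 hours of MG132 stress.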 In kind it is functional.

Experiment [6] addresses T4, Cytochrome P450 1A2 (Homo sapiens, UniProt P05177).
T4 sequence (P05177 whole entry): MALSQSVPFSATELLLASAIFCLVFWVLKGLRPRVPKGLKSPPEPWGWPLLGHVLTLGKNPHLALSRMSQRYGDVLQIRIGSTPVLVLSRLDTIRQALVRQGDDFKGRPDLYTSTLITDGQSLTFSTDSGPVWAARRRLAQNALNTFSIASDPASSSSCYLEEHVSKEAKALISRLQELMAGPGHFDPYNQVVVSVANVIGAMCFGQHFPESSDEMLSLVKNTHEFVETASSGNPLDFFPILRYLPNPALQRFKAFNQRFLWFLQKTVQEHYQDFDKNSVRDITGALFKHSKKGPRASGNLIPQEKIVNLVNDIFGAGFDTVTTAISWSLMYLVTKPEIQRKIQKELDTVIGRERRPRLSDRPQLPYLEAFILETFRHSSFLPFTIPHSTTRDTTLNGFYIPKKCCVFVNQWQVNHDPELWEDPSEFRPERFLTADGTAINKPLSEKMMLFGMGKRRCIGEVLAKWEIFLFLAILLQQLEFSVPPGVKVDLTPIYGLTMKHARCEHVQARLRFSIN

Experiment [7] deals with T3, Heat shock factor protein 1. The experiment is described as follows: enhancement of HSF1-driven luciferase signal – cell-based, NIH3T3, luminescence, dose retest, confirmation (AID 435004).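 Further: stress induced by proteasome inhibitor MG132 added 30 min after compound; luciferase reporter driven by HSF1 response element in NIH3T3 cells; actives raise luminescence as potentiators of the MG132 stress response.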 It counts as functional.
Experiment [8] can be described thus: NIH3T3 cell viability loss – ATP luminescence, mouse fibroblasts, counter-screen, dose response (AID 2010).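 Further: cells exposed to compound for about 90 hours before reading.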 It counts as functional, cell-based. Background: Counterscreens check selectivity or assay interference.
The nature of experiment [9]: Trypanosoma cruzi growth suppression in host cells – NIH3T3 host cells, beta-gal luminescence, confirmation (AID 2044).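 Further: intracellular parasites grown in NIH/3T3 mouse fibroblasts as host cells; luminescent beta-galactosidase reporter signal from transgenic T. cruzi replicating inside host cells; inhibitors lower the luminescence signal.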 In kind it is functional, cell-based.

Chain of Luciferin 4-monooxygenase (P08659 whole entry): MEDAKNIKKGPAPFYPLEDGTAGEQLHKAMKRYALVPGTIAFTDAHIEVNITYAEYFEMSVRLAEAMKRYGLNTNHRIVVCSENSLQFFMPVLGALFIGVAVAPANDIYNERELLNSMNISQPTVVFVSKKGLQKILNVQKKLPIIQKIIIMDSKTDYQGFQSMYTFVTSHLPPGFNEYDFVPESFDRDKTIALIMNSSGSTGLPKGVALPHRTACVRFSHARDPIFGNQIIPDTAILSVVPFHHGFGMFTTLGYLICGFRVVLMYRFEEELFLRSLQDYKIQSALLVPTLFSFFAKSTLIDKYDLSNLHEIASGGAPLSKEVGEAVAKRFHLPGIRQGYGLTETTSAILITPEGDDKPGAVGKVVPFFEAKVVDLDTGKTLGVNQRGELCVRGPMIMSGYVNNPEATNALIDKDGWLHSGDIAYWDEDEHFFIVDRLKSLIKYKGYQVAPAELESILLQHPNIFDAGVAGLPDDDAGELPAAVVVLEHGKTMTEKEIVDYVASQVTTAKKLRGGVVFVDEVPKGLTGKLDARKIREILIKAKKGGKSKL

On to `COc1cc2sc3ccc(C#CC4(O)CCCCC4)cc3c(=O)c2cc1OC`, for which the EC50 – broadly, the concentration at which the effect is half-maximal – in [1] is 2.35 µM (active); in [2], 4.69 µM (active).

Consider `Cc1cccc(NC(=O)C2CCCN(C(=O)NC3CCCCC3)C2)c1C` (centres undefined), for which the concentration for a half-maximal effect (EC50) in experiment [1] and in experiment [2] was > 112 µM (not active) each time.

Regarding `O=C(CSC1=NCCS1)Nc1nc(-c2ccccc2)cs1`, the concentration at half-maximal activity (AC50) (usually the concentration giving half of the maximal activity seen) in experiment [3] was > 380 µM (inconclusive). Also, the EC50 in experiment [4] was 7.45 µM (active).

On to `CCc1c(C)nc2ccc(C)cc2c1O`, for which the EC50 in [5] is > 195 µM (not active).

In the case of `Cc1noc(C)c1CSCC(=O)Oc1ccc(N(C)S(=O)(=O)c2ccc(Cl)cc2)cc1`, in experiment [3], the AC50 was 2.34 µM (active). In addition, in experiment [4], the EC50 is 13.8 µM (active).

Turning to `CCN(CC(=O)Nc1ccccc1OC)C(=O)Cn1cnc2ccccc2c1=O`, the EC50 in [1] and in experiment [2] was > 112 µM (not active) in each case.

For the molecule `COc1ccc2nc(SCC(=O)NN)cc(C)c2c1`, the AC50 is 0.398 µM (inconclusive) in [6] and 50.5 µM (active) in [3]. The EC50 in [4] was 10.6 µM (active).

Take `CC(Oc1ccccc1Cl)C(=O)Nc1ccc(S(=O)(=O)N2CCCC2)cc1` (centres undefined): the results for the EC50 in experiment [1] and in experiment [2] were 32 µM (active) and > 112 µM (not active), respectively.

Consider `Cc1ccc(N2C(=O)C(Cl)=C(N3CCOCC3)C2=O)c(C)c1`, for which the AC50 in experiment [3] was 16 µM (active). Further, the concentration for a half-maximal effect (EC50) in experiment [4] was 4.19 µM (active).

`Cc1cc(C)nc(NC(=O)c2ccc(C)c([N+](=O)[O-])c2)n1`: in [5], the EC50 is recorded as > 195 µM (not active).

Take `COc1ccc(Br)cc1CN1CCCCCCC1`: the EC50 in experiment [7] was > 260 µM (inactive).

As for `COc1ccc(-n2cc([N+](=O)[O-])c(=O)c3ccc(Cl)cc32)cc1`, the EC50 in experiment [5] is > 195 µM (not active).

Take `CCOC(=O)CN1C(=O)S/C(=C/c2cc(C)n(C)c2C)C1=O`: in experiment [5], the EC50 was > 195 µM (not active).

As to `CC(C)Cn1c(N2CCN(C(=O)/C=C/c3ccccc3)CC2)nc2ccccc21`, in experiment [5], the EC50 is on record as > 195 µM (not active).

Consider `FC(F)(F)c1cnc(Sc2nc3nccc(-c4ccc(Cl)cc4)n3n2)c(Cl)c1`, for which the EC50 in [7] was > 260 µM (inactive); in [8] it was > 30 µM (not active); in experiment [9] it was 1.72 µM (active).

As for `S=C(NCCc1ccccc1)N1CCN(Cc2ccc(Cl)c(Cl)c2)CC1`, the concentration giving a half-maximal response (EC50) in experiment [5] was > 195 µM (not active).

In the case of `CC1COc2ccccc2N1C(=O)c1ccc(F)cc1` (centres undefined), in [5], the EC50 is reported as > 195 µM (not active).

For the molecule `O=C(O)/C=C/C(=O)Nc1cc(F)ccc1F`, in experiment [5], the EC50 was 35.9 µM (active).

For `CCOC(=O)c1c(C)[nH]c(C(=O)C(C)OC(=O)c2oc3ccccc3c2COC)c1C` (centres undefined), the EC50 is > 112 µM (not active) in experiment [1] and 5.48 µM (active) in [2].

In the case of `CCOC(=S)SCC(=O)Nc1nccs1`, the EC50 is > 112 µM (not active) in experiment [1] and 21.6 µM (active) in experiment [2].

In the case of `COc1ccc(-c2cc(C(=O)NCc3ccco3)c3ccccc3n2)cc1`, the EC50 in experiment [7] is 158 µM (active).

As for `CCOC(=O)c1cc(C#N)c(NCc2ccccc2)nc1C`, the EC50 in experiment [5] is > 195 µM (not active).

As for `CC(=O)c1c(C)n(CCCOC(C)C)c2ccc(O)cc12`, the EC50 in experiment [5] is recorded as > 195 µM (not active).

As to `Cc1ccc(C(=O)NCC(C)NC(=O)c2ccc(C)c([N+](=O)[O-])c2)cc1[N+](=O)[O-]` (centres undefined), the EC50 in [7] was > 260 µM (inactive).

As to `Oc1cccnc1Sc1cccc(C(F)(F)F)c1`, the EC50 in experiment [7] was 165 µM (active).

On to `O=C(CCNc1cccc(F)c1)c1cccc([N+](=O)[O-])c1`, for which the AC50 in experiment [3] is > 380 µM (inactive). The EC50 in experiment [4] is > 380 µM (inactive).

In the case of `Cc1[nH]n(C(C)(C)C)c(=O)c1Sc1ccccc1`, in [3], the half-maximal activity concentration (AC50) was 19.1 µM (active). Besides, the concentration for a half-maximal effect (EC50) in experiment [4] was 2.02 µM (active).

Turning to `O=C(CNC(=O)C1COc2ccccc2O1)N/N=C\c1ccccc1Cl` (centres undefined), the AC50 in [3] was 189 µM (active). For the same molecule, in experiment [4], the EC50 is > 380 µM (inactive).
